Data set [1] concerns human mammary carcinoma MX-1 (MX1). As to the kind of experiment: In vivo antitumor assay, MX1(src). Also noted: species or system human tumor in athymic NCR-nu mice. The following applies: drug route ip, qd 1,5,9, change in mean tumor weight. An excerpt: (§1) Mice: Inbred: C3H/He and NCR-nu; and Hybrids: B6D2Fl (C57BL/6 females X DBA/2 males, CD2Fl (Balb/c females X DBS/2 males) and B6x C3fl (C57BL/6 x C3H) were bred at Wayne State University from strained obtained from the Frederick Cancer Research Facility, Frederick, Md. or purchased from commercial suppliers.
(§2) Tumors: Murine Tumor: P388 and an adriamycin-resistant (ADR) subline P388/ADR leukemia and the following transplantable solid tumors of mice were used for in Vivo testing: B16 melanoma (B16), pancreatic ductal adenocarcinoma No. 03 (Panc 03), colon adenocarcinoma No. 38 (colo 38), mammary ductal adenocarcinoma No. 16/C (Mam16) and an adriamycin-resistantsubline Mam16C/ADR. Human tumor: A single human tumor, mammary carcinoma MX-1 (MX1) was used for in vivo testing. All tumors are in the Developmental Therapeutics Program frozen tumor respository, maintained by the Biological Testing Branch, Frederick Md. Each has a detailed description, code identification number, and list of references at the National Tumor Repository. Murine tumors were maintained in the mouse strain of origin and were transplanted in the appropriate F1 hydrid (or the strain of origin) for therapy trials. Human mammary carcinoma MX-1 MX1) was maintained as a subcutaneous implant in either athymic Swiss (Cr: NIH(S)-nu) or athymic random bred (NCR-nu) mice and transplanted in NCR-nu for therapy trials.
(§3) For P388 and P388/ADR leukemia studies the tumor cells were implanted either IP or intravenously (IV) on day zero and treatment was started on day one. For B16 melanoma (B16) studies, the tumor cells were implanted IP on day zero and treatment was started on day one. Tirered controls were also included to facilitate the calculation of tumor cell kill. For mammary carcinoma MX-1 studies, tumors were implanted with 1) subcutaneously (sc) (14-mg fragment of s.c. donor tumor) in the axillary region or 2) under the subrenal capsule (src) (10×10×10 ocular micrometer unit fragment of s.c. donor tumor). Treatment started on the day after subrenal capsule tumor implant or when the subcutaneous tumor implant had reached 100-700 mg.
(§4) Quantitative end points used assess antitumor activity included % Increased Life Span (% ILS), Tumor Cell Kill (Log10 kill), and Tumor Growth Inhibition (T/C). Long Term Survivors (45 or 60 day) were excluded from calculations of % ILS and Tumor Cell Kill.
(§5) Tumors were measured with a caliper once or twice weekly (as needed) until either tumors exceeded 1600 mg or cure was assured. Tumor weights were estimated from two-dimensional measurements: Tumor Weight (mg)=(a×b^2) / 2, where a and b are the tumor length and width (nun) respectively. Measurements were carried out simultaneously in both treatment and control groups. When the control group tumors reached approximately 750-1500 mg in size (median of group), the median tumor weight of each group was determined (including zeros). The T/C value in percent is an indiation of antitumor effectiveness. The % T/C was calculated from the following formula for solid murine tumor models: [formula] where T and C are median tumor weights of the treatment and control groups, respectively. A T/C equal to or less than 42% is considered significant antitumor activity. A T/C value <10% is indicative of a high degree of antitumor activity and is the level used by National Cancer Institute to justify further development if other requirements are met (termed DN-2 level activity). By convention the T/C value for the mammary carcinoma MX-1 models is calculated by the parameter of change in tumor weight. The % T/C was calculated from the following formula for MX-1 models [formula] where ΔT and ΔC are the change in mean tumor weight of the test and control groups, respectively, and T (initial) is the initial mean tumor weight of the test group. […] A reproducible % T/C ≤10 is considered significant activity.

Data set [2] in a line: In vivo antitumor assay, MX1(src). Also noted: species or system human tumor in athymic NCR-nu mice. To be noted: mouse, in vivo, drug route ip, qd 1,5,9.
Source text: as §1, §2, §3, §4, §5

Data set [3] is described as follows: In vivo antitumor assay, P388(ip). To be noted: mouse, in vivo.
Source text: as §1, §2, §3, §4
(§6) Endpoints were calculated as follows: % ILS [formula] where Dt is the median day of death for treated and Dc is the median day of death for control groups. A % ILS ≥20 or ≥25 for P388 and B16 intraperitoneal models, respectively, is indicative of a significant degree of antitumor activity. A % ILS ≥75 or ≥50 for P388 and B16 intraperitoneal models, respectively, is indicative of a high degree of antitumor activity and is the level used by National Cancer Institute to justify further development if other requirements are met (termed DN-2 level activity). Minimum quantitative activity limits for additional P388 models (e.g. P388/ADR and P388, IJV) have not been defined. However, the activity limits specified for the intraperitoneal models may be applied as in the majority of instances these models are found to be signficantly […] challenging.
(§7) The log10 cell kill was calculated from the following formula: [formula] where T-C is the tumor difference in the median day of death between the treated (T) and the control (C) groups and Td is the tumor doubling time (in days), the latter estimated from the best fit straight line from a log-linear growth plot of the control-group tumors in exponential growth. The conversion of the T-C values to log10 cell kill is possible because the Td for tumors regrowing post-treatment approximated the Td values of the tumors in untreated control mice.

A further data set relates to P388 leukemia. As to the kind of experiment: In vivo antitumor assay, P388(ip). To be noted: P388(ip), qd 1,5,9; for ILS %: increased life span; for LOG KILL: log10 cell kill.
Source text: as §1, §2, §3, §4, §6, §7

[4] abbreviates: P388(ip), drug route ip, qd 1,5,9.
Setting [5] is: P388(ip), drug route iv, qd 1,5,9.

Take `Cc1cc(-c2c(F)cc3c(=O)c(Cc4c(O)cccc4O)cn(C4CC4)c3c2F)cc(C)n1` [Example 26, 1-Cyclopropyl-6,8-difluoro-7-[2,6-dimethyl-4-pyridinyl]-3-[2,6-dihydroxyphenylmethyl]-1,4-dihydroquinoline-4-one]: the T/C % in data set [1] was 20%. Besides, the MTD in data set [2] is 8.1 mg/kg; in data set [3] (setting [4]), 12 mg/kg; in data set [3] (setting [5]), 15 mg/kg. The ILS % with P388 leukemia (drug route ip) came out at 100%; with P388 leukemia (drug route iv) it was 80%. For the same molecule, the results for the “LOG KILL” value in the data set on P388 leukemia (drug route ip) and in the data set on P388 leukemia (drug route iv) were 7.3 and 5.8, respectively.
`Cc1cc(-c2c(F)cc3c(=O)c(Cc4ccccc4O)cn(C4CC4)c3c2F)cc(C)n1` [Example 30] had a T/C % in data set [1] of 6%. In addition, the figures for the MTD in data set [2], in data set [3] (setting [4]) and in data set [3] (setting [5]) were 304 mg/kg, 456 mg/kg and 120 mg/kg, respectively. Moreover, the values for the ILS % in the data set on P388 leukemia (drug route ip) and in the data set with P388 leukemia (drug route iv) were 120% and 20%, respectively. The “LOG KILL” value in the data set with P388 leukemia (drug route ip) is 8.8; in the data set with P388 leukemia (drug route iv) it was 1.5.
For `Cc1cc(-c2c(F)cc3c(=O)c(Cc4ccc(O)cc4O)cn(C4CC4)c3c2F)cc(C)n1` [Example 33], the T/C % in data set [1] stood at 8%. Further, the MTD is 19 mg/kg in data set [2], 37 mg/kg in data set [3] (iv) and 19 mg/kg in data set [3] (setting [4]). Also, the ILS % in the data set on P388 leukemia (drug route ip) and with P388 leukemia (drug route iv) was 50% in each case. The “LOG KILL” value with P388 leukemia (drug route ip) and with P388 leukemia (drug route iv) was 3.6 throughout.

For the origin of these results see patent publication US5330992A, “1-cyclopropyl-4-pyridyl-quinolinones” (priority 1992, dated 1994).
